Data on 20 compounds can be found in patent publication US20250206757A1 (GASHERBRUM BIO, INC., priority 2022, published 2025).

Chain of GLP-1 Receptor (P43220 24-463): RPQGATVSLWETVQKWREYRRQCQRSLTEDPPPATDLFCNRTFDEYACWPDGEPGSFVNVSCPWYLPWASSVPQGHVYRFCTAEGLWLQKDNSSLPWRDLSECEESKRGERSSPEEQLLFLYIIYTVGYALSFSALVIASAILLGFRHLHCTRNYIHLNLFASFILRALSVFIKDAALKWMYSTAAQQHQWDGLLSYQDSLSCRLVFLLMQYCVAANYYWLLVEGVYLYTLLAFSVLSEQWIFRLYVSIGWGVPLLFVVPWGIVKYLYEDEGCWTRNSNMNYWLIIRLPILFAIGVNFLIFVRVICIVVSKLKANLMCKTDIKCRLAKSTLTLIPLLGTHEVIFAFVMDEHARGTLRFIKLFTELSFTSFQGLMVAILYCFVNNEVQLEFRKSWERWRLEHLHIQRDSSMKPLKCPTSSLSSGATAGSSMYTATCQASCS

This assay has as its target GLP-1 Receptor (Homo sapiens, UniProt P43220). Put plainly: GLP-1R agonist cAMP stimulation assay (HEK293/GLP1R/CRE-LUC cells, HTRF cAMP dynamic 2 kit). The format is cell-based. The note with it: HEK293/CRE-Luc cell line stably expressing the GLP-1 Receptor; 30 min incubation at 37° C. An outline of the steps:
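HEK293 cells stably expressing GLP-1R with CRE-Luc, 1000 cells/well in DPBS with 0.5 mM IBMX and 0.10% BSA, exposed to half-log compound dilutions for 30 min at 37 °C. cAMP measured by HTRF (665/615 nm) after 1 h at room temperature.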
For orientation: In TR-FRET formats the signal depends on donor and acceptor labels being close together.
In turn, `Cc1cc2c(nc1OCc1c(F)cc(Cl)cc1F)CN(Cc1nc3nc(-c4noc(=O)[nH]4)ccc3n1C[C@@H]1CCO1)CC2` [Compound 50, 3-[2-({2-[(4-chloro-2,6-difluorophenyl)methoxy]-3-methyl-5,6,7,8-tetrahydro-1,7-naphthyridin-7-yl}methyl)-1-{1[(2S)-oxetan-2-yl]methyl}-1H-imidazo[4,5-b]pyridin-5-yl]-4,5-dihydro-1,2,4-oxadiazol-5-one] gave an EC50 of less than 1 nM.

In turn, `NC(=O)c1ccc2c(c1)nc(CN1CCc3cc(C(F)(F)F)c(OCc4ccc(Cl)cc4F)nc3C1)n2C[C@@H]1CCO1` [Compound 92, 2-({2-[(4-chloro-2-fluorophenyl)methoxy]-3-(trifluoromethyl)-5,6,7,8-tetrahydro-1,7-naphthyridin-7-yl}methyl)-1-{[(2S)-oxetan-2-yl]methyl}-1H-1,3-benzodiazole-5-carboxamide] yielded an EC50 of 1 to 300 nM.

`Fc1cc(Cl)cc(F)c1COc1nc2c(cc1C(F)(F)F)CCN(Cc1nc3cc(-c4nnn[nH]4)ncc3n1C[C@@H]1CCO1)C2` [Compound 90, 2-[(4-chloro-2,6-difluorophenyl)methoxy]-7-[(3-{[(2S)-oxetan-2-yl]methyl}-6-(11H-1,2,3,4-tetrazol-5-yl)-3H-imidazo[4,5-c]pyridin-2-yl)methyl]-3-(trifluoromethyl)-5,6,7,8-tetrahydro-1,7-naphthyridine] showed an EC50 of less than 1 nM.

Turning to `O=c1[nH]c(-c2cnc3c(c2)nc(CN2CCc4ccc(OCc5ccc(Cl)cc5F)nc4C2)n3C[C@@H]2CCO2)no1` [Compound 1, (S)-3-(2-((2-((4-chloro-2-fluorobenzyl)oxy)-5,8-dihydro-1,7-naphthyridin-7(6H)-yl)methyl)-3-(oxetan-2-ylmethyl)-3H-imidazo[4,5-b]pyridin-6-yl)-1,2,4-oxadiazol-5(4H)-one], the EC50 lay within 1 to 300 nM.

The compound `Cc1cc2c(nc1NCc1c(F)cc(Cl)cc1F)CN(Cc1nc3cc(-c4noc(=O)[nH]4)ncc3n1C[C@@H]1CCO1)CC2` [Compound 35, 3-{2-[(2-{[(4-chloro-2,6-difluorophenyl)methyl]amino}-3-methyl-5,6,7,8-tetrahydro-1,7-naphthyridin-7-yl)methyl]-3-{[(2S)-oxetan-2-yl]methyl}-3H-imidazo[4,5-c]pyridin-6-yl}-4,5-dihydro-1,2,4-oxadiazol-5-one] had a concentration giving a half-maximal response (EC50) of less than 1 nM.

For the compound `O=C(Nc1cc2nc(CN3CCc4cc(C(F)(F)F)c(OCc5ccc(Cl)cc5F)nc4C3)n(C[C@@H]3CCO3)c2cn1)c1cccnc1` [Compound 103, N-[2-({2-[(4-chloro-2-fluorophenyl)methoxy]-3-(trifluoromethyl)-5,6,7,8-tetrahydro-1,7-naphthyridin-7-yl}methyl)-3-{[(2S)-oxetan-2-yl]methyl}-3H-imidazo[4,5-c]pyridin-6-yl]pyridine-3-carboxamide], the concentration for a half-maximal effect (EC50) is less than 1 nM.

As to `CN(C)C(=O)c1nnc(-c2cc3nc(CN4CCc5cc(C(F)(F)F)c(OCc6ccc(Cl)cc6F)nc5C4)n(C[C@@H]4CCO4)c3cn2)[nH]1` [Compound 95, 5-[2-({2-[(4-chloro-2-fluorophenyl)methoxy]-3-(trifluoromethyl)-5,6,7,8-tetrahydro-1,7-naphthyridin-7-yl}methyl)-3-{[(2S)-oxetan-2-yl]methyl}-3H-imidazo[4,5-c]pyridin-6-yl]-N,N-dimethyl-4H-1,2,4-triazole-3-carboxamide], the EC50 was in the range of 1 to 300 nM.

In turn, `CC(c1nc2cc(-c3nnc(C(F)(F)F)[nH]3)ncc2n1C[C@@H]1CCO1)N1CCc2cc(C(F)(F)F)c(OCc3ccc(Cl)cc3F)nc2C1` (stereo partly drawn) [Compound 82, 2-[(4-chloro-2-fluorophenyl)methoxy]-7-[1-(3-{[(2S)-oxetan-2-yl]methyl}-6-[5-(trifluoromethyl)-4H-1,2,4-triazol-3-yl]-3H-imidazo[4,5-c]pyridin-2-yl)ethyl]-3-(trifluoromethyl)-5,6,7,8-tetrahydro-1,7-naphthyridine] registered a 50% effective concentration (EC50) of less than 1 nM.

For `O=c1[nH]c(-c2ccc3c(nc(CN4CCc5cc(C(F)(F)F)c(OCc6ccc(Cl)cc6F)nc5C4)n3C[C@@H]3CCO3)c2F)no1` [Compound 47, 3-[2-({2-[(4-chloro-2-fluorophenyl)methoxy]-3-(trifluoromethyl)-5,6,7,8-tetrahydro-1,7-naphthyridin-7-yl}methyl)-4-fluoro-1-{[(2S)-oxetan-2-yl]methyl}-1H-1,3-benzodiazol-5-yl]-4,5-dihydro-1,2,4-oxadiazol-5-one], the half-maximal effective concentration (EC50) is less than 1 nM.

With `O=c1[nH]nc(-c2cc3nc(CN4CCc5cc(C(F)(F)F)c(OCc6ccc(Cl)cc6F)nc5C4)n(C[C@@H]4CCO4)c3cn2)[nH]1` [Compound 97, 3-[2-({2-[(4-chloro-2-fluorophenyl)methoxy]-3-(trifluoromethyl)-5,6,7,8-tetrahydro-1,7-naphthyridin-7-yl}methyl)-3-{[(2S)-oxetan-2-yl]methyl}-3H-imidazo[4,5-c]pyridin-6-yl]-4,5-dihydro-1H-1,2,4-triazol-5-one], the EC50 is less than 1 nM.

In turn, `CC(c1nc2cc(-c3nnc(C#N)[nH]3)ncc2n1C[C@@H]1CCO1)N1CCc2cc(C(F)(F)F)c(OCc3c(F)cc(Cl)cc3F)nc2C1` (stereo partly drawn) [Compound 84, 5-[2-(1-{2-[(4-chloro-2,6-difluorophenyl)methoxy]-3-(trifluoromethyl)-5,6,7,8-tetrahydro-1,7-naphthyridin-7-yl}ethyl)-3-{1[(2S)-oxetan-2-yl]methyl}-3H-imidazo[4,5-c]pyridin-6-yl]-4H-1,2,4-triazole-3-carbonitrile] came in with a concentration giving a half-maximal response (EC50) of less than 1 nM.

Turning to `O=c1[nH]c(-c2ccc3c(nc(CN4CCc5cc(C(F)(F)F)c(NCc6ccc(Cl)cc6F)nc5C4)n3C[C@@H]3CCO3)c2F)no1` [Compound 106, 3-{2-[(2-{[(4-chloro-2-fluorophenyl)methyl]amino}-3-(trifluoromethyl)-5,6,7,8-tetrahydro-1,7-naphthyridin-7-yl)methyl]-4-fluoro-1-{[(2S)-oxetan-2-yl]methyl}-1H-1,3-benzodiazol-5-yl}-4,5-dihydro-1,2,4-oxadiazol-5-one], the EC50 is less than 1 nM.

In turn, `N#Cc1cc2c(nc1OCc1c(F)cc(Cl)cc1F)CN(Cc1nc3cc(-c4noc(=O)[nH]4)ccc3n1C[C@@H]1CCO1)CC2` [Compound 70, 2-[(4-chloro-2,6-difluorophenyl)methoxy]-7-[(1-{[(2S)-oxetan-2-yl]methyl}-5-(5-oxo-4,5-dihydro-1,2,4-oxadiazol-3-yl)-1H-1,3-benzodiazol-2-yl)methyl]-5,6,7,8-tetrahydro-1,7-naphthyridine-3-carbonitrile] had a half-maximal effective concentration (EC50) of less than 1 nM.

Regarding `Fc1cc(Cl)ccc1COc1nc2c(cc1C(F)(F)F)CCN(Cc1nc3cc(-c4nnc(C(F)(F)F)[nH]4)ncc3n1C[C@@H]1CCCO1)C2` [Compound 79, 2-[(4-chloro-2-fluorophenyl)methoxy]-7-[(3-{1[(2S)-oxolan-2-yl]methyl}-6-[5-(trifluoromethyl)-4H-1,2,4-triazol-3-yl]-3H-imidazo[4,5-c]pyridin-2-yl)methyl]-3-(trifluoromethyl)-5,6,7,8-tetrahydro-1,7-naphthyridine], the half-maximal effective concentration (EC50) is 1 to 300 nM.

In turn, `Fc1cc(Cl)ccc1COc1nc2c(cc1C(F)(F)F)CCN(Cc1nc3c(F)c(-c4nnn[nH]4)ccc3n1C[C@@H]1CCO1)C2` [Compound 88, 2-[(4-chloro-2-fluorophenyl)methoxy]-7-[(4-fluoro-1-{[(2S)-oxetan-2-yl]methyl}-5-(1H-1,2,3,4-tetrazol-5-yl)-1H-1,3-benzodiazol-2-yl)methyl]-3-(trifluoromethyl)-5,6,7,8-tetrahydro-1,7-naphthyridine] showed a half-maximal effective concentration (EC50) of less than 1 nM.

Compound `O=c1[nH]c(-c2cc3nc(CN4CCc5cc(C(F)(F)F)c(NCc6ccc(Cl)cc6F)nc5C4)n(C[C@@H]4CCO4)c3cn2)no1` [Compound 104, 3-{2-[(2-{[(4-chloro-2-fluorophenyl)methyl]amino}-3-(trifluoromethyl)-5,6,7,8-tetrahydro-1,7-naphthyridin-7-yl)methyl]-3-{[(2S)-oxetan-2-yl]methyl}-3H-imidazo[4,5-c]pyridin-6-yl}-4,5-dihydro-1,2,4-oxadiazol-5-one] had an EC50 of less than 1 nM.

`O=c1[nH]nc(-c2cc3nc(CN4CCc5cc(C(F)(F)F)c(OCc6ccc(Cl)cc6F)nc5C4)n(C[C@@H]4CCO4)c3cn2)o1` [Compound 96, 5-[2-({2-[(4-chloro-2-fluorophenyl)methoxy]-3-(trifluoromethyl)-5,6,7,8-tetrahydro-1,7-naphthyridin-7-yl}methyl)-3-{[(2S)-oxetan-2-yl]methyl}-3H-imidazo[4,5-c]pyridin-6-yl]-2,3-dihydro-1,3,4-oxadiazol-2-one] returned a concentration giving a half-maximal response (EC50) of less than 1 nM.

In turn, `N#Cc1cc2c(nc1OCc1c(F)cc(Cl)cc1F)CN(Cc1nc3cc(-c4nnc(C(F)(F)F)[nH]4)ncc3n1C[C@@H]1CCO1)CC2` [Compound 71, 2-[(4-chloro-2,6-difluorophenyl)methoxy]-7-[(3-{[(2S)-oxetan-2-yl]methyl}-6-[5-(trifluoromethyl)-4H-1,2,4-triazol-3-yl]-3H-imidazo[4,5-c]pyridin-2-yl)methyl]-5,6,7,8-tetrahydro-1,7-naphthyridine-3-carbonitrile] showed a concentration for a half-maximal effect (EC50) of less than 1 nM.

`Fc1cc(Cl)ccc1COc1nc2c(cc1C(F)(F)F)CCN(Cc1nc3cc(-c4nnc(C(F)(F)F)[nH]4)nnc3n1C[C@@H]1CCO1)C2` [Compound 6, 2-[(4-chloro-2-fluorophenyl)methoxy]-7-[(7-{[(2S)-oxetan-2-yl]methyl}-3-[5-(trifluoromethyl)-4H-1,2,4-triazol-3-yl]-7H-imidazo[4,5-c]pyridazin-6-yl)methyl]-3-(trifluoromethyl)-5,6,7,8-tetrahydro-1,7-naphthyridine]: the concentration for a half-maximal effect (EC50) is less than 1 nM.

The compound `N#CC1(Cc2cc(-c3nnc(C(F)(F)F)[nH]3)cnc2CN2CCc3cc(C(F)(F)F)c(OCc4ccc(Cl)cc4F)nc3C2)CC1` [Compound 10, 1-{[2-({2-[(4-chloro-2-fluorophenyl)methoxy]-3-(trifluoromethyl)-5,6,7,8-tetrahydro-1,7-naphthyridin-7-yl}methyl)-5-[5-(trifluoromethyl)-4H-1,2,4-triazol-3-yl]pyridin-3-yl]methyl}cyclopropane-1-carbonitrile] gave an EC50 of 1 to 300 nM.

As usually defined, the EC50 is the concentration at which the effect is half-maximal. A high value points to a less potent agent.
